Experimental findings from article PMC8899474, “Discovery and Characterization of the Key Constituents in Ginkgo biloba Leaf Extract With Potent Inhibitory Effects on Human UDP-Glucuronosyltransferase 1A1” (Frontiers in Pharmacology, 2022) are described below.

For orientation: IC50 means the concentration needed to halve the response being measured. Usually Ki stands for a measure of affinity in units of concentration, obtained from inhibition or displacement. A higher Ki goes with weaker binding.

Assay [1] deals with T1, hUGT1A1 (Homo sapiens, UniProt P22309).
T1 sequence (P22309 26-533): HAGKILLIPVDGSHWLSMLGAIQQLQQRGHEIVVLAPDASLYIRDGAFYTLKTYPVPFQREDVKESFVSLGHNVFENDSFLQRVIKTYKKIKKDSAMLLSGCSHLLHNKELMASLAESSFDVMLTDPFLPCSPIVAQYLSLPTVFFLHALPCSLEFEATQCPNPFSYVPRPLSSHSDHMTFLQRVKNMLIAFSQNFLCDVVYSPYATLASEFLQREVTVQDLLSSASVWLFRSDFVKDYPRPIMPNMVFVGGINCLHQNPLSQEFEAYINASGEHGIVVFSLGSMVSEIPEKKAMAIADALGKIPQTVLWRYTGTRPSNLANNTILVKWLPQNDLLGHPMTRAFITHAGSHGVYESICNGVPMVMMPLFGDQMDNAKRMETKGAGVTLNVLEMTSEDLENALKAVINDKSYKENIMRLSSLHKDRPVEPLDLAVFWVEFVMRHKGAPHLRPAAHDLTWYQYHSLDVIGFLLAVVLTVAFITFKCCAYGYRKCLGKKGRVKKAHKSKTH
As to the kind of experiment: UGT1A1 inhibition assay and inhibition kinetics in human liver microsomes (NHPN-O-glucuronidation). The assay is classed as biochemical. To be noted: NHPN-O-glucuronidation in HLM. Background: Liver microsomes are vesicles of endoplasmic reticulum, rich in cytochrome P450 enzymes.

Assay [2] concerns the target T1, hUGT1A1. As to the kind of experiment: UGT1A1 inhibition assay in living HeLa-UGT1A1 cells (NHPN-O-glucuronidation, LC-FD). Type of assay: cell-based. The arrangement: expressed in transfected cells; host or cells: HeLa cells, stably transduced with lentivirus (HeLa-UGT1A1). The settings on record: for inhibition of intracellular hUGT1A1: high concentration (100 μM), HeLa-UGT1A1 cells. Here is the method: A RF-20A FD detector coupled UFLC system (Shimadzu, Kyoto, Japan), equipped with a DGU-20A5R vacuum degasser, two LC-20ADXR pumps, a SIL-20ACXR autosampler and a CTO-20A column oven, was used to quantify NHPN and NHPNG. Chromatographic separation of analytes was carried out on a shim-pack Acchrom HC-C18 analytical column (2.0 × 150 mm, 4.6 μm particle size), while the column temperature was kept at 40°C. The flow rate was kept at 0.5 ml/min. The mobile phase consisted of acetonitrile (A) and water containing 0.2% formic acid (B). The gradient of the mobile phase was as follows: 0–0.5 min, 80–60% B; 0.5–3.5 min, 60–5% B; 3.5–5 min, 5% B; 5–7.5 min, equilibration with 80% B. The excitation wavelength and the emission wavelength were set at 370 and 520 nm, respectively for detection.
The inhibitory effects of herbal products and chemical constituents of GBL extract on UGT1A1 were investigated in living HeLa-UGT1A1 cells by using a specific fluorescent substrate, NHPN, as a probe. HeLa-UGT1A1 cells were cultured at 37°C in 5% CO2 in Modified Eagle’s Medium (MEM) containing 0.1% antibiotic-antimycoticmix, supplemented with 10% fetal bovine serum (FBS). HeLa-UGT1A1 cells were seeded in 96-well plates and cultured for 24 h. The cells were incubated in the medium containing different kinds of herbal products (final concentration, 10 μg/ml) or chemical constituents of GBL extract (diluted to different concentration by DMSO with the final concentration of 1% DMSO in each incubation) for 60 min at 37°C under 5% CO2, and co-incubated with NHPN (final concentration, 50 μM) for another 60 min. […] The validation data for this cell-based flourescence assay can be found in our previous publication ([Zhu et al., 2020]).

Assay [3] has as its target T1, hUGT1A1. The assay is described as follows: UGT1A1 inhibition assay and inhibition kinetics in human liver microsomes (NHPN-O-glucuronidation). The assay is classed as biochemical. The settings on record: NHPN-O-glucuronidation in HLM; for Ki: second plot of Lineweaver-Burk slopes. Here is the method:
A set of incubations by changing both the fluorescent substrate concentration and the inhibitor concentration were performed to determine the inhibition kinetic modes and the corresponding inhibition constant (K i ) values. The incubation and analytical sample preparation were conducted as described previously. Goodness-of-fit parameter and Akaike’s Information Criterion (AIC) were employed to select the most appropriate inhibition kinetic modes from the following three inhibition modes including competitive inhibition Eq. 1, noncompetitive inhibition Eq. 2, or mixed inhibition Eq. 3, V=Vmax×[S]/Km×(1+[I]/Ki)+[S] (1) V=Vmax×[S]/(Km+[S])×(1+[I]/Ki) (2) V=Vmax×[S]/Km×(1+[I]/Ki)+[S]×(1+[I]/αKi) (3)
Here, V is the turnover of the glucuronidation reaction; V max is the maximum velocity; S and I are the substrate and inhibitor concentrations, respectively; K m is the Michaelis constant (substrate concentration at 0.5 V max ); K i is the inhibition constant that describes the affinity of the inhibitor towards hUGT1A1. The corresponding K i value of each tested inhibitor is calculated by utilizing the slopes of second plot from Lineweaver-Burk plot versus inhibitor concentrations.

Assay [4] addresses T1, hUGT1A1. The assay is described as follows: UGT1A1 inhibition assay with recombinant UGT1A1 (NHPN-O-glucuronidation).
Description: NHPN was used for evaluating the inhibitory effects of GBL extract on HLM. A typical incubation mixture with a total volume of 200 μl consisted of 50 mM Tris-HCl (pH = 7.4), 5 mM MgCl2, 2 mM UDPGA, NHPN (diluted by DMSO, 5 μM) and the enzymes. […] The final concentration of DMSO in the incubation mixture was less than 1%. […] A concentration of 5 μg/ml was used when recombinant UGT1A1 was the enzyme source. After pre-incubation for 3 min at 37°C, UDPGA was added to the incubation mixture to initiate the reaction. After 60 min incubation at 37°C, the reaction was terminated by adding 200 μl ice-cold acetonitrile, and the incubation mixture was kept on ice. After centrifugation at 20,000×g for 20 min at 4°C, 5 μl aliquots of the supernatant was taken for LC-FD analysis.
The residual activity of hUGT1A1 was determined as follows: Residual activity (%) = (the fluorescence intensity of NHPNG generated in the incubations with inhibitor)/(the fluorescence intensity of NHPNG generated in the incubations without inhibitor) × 100%. A set of incubations with the same fluorescent substrate concentration and different inhibitor concentrations were performed to determine the half maximal inhibition concentration (IC50).
[5] abbreviates: hUGT1A1-catalyzed NHPN-O-glucuronidation in HeLa-UGT1A1 cells, read-out: IC50.

With `O=c1cc(-c2ccc(O)c(-c3c(O)cc(O)c4c(=O)cc(-c5ccc(O)cc5)oc34)c2)oc2cc(O)cc(O)c12` [Amentoflavone], the concentration for half-maximal inhibition (IC50) is 0.41 ± 0.034 µM against hUGT1A1 [1] and 3.29 ± 0.47 µM at hUGT1A1 [2] (setting [5]).

As to `O=c1cc(-c2ccc(O)cc2)oc2cc(O)cc(O)c12` [Apigenin], at hUGT1A1 [2] (setting [5]), the 50% inhibitory concentration (IC50) is 1.89 ± 0.24 µM.

On to `CC(C)(C)[C@]1(O)CC2OC(=O)CC23C(=O)OC2OC(=O)[C@H](O)C231` (stereo partly shown) [Bilobalide], for which, at hUGT1A1 [2], the IC50 was over 100 µM and the “inhibition of intracellular hUGT1A1” value is recorded as “did not inhibit”.

Regarding `COc1ccc(-c2cc(=O)c3c(O)cc(O)cc3o2)cc1-c1c(O)cc(O)c2c(=O)cc(-c3ccc(O)cc3)oc12` [Bilobetin], the Inhibition mode entry on hUGT1A1 [3] was “Mixed”. At hUGT1A1 [3], this compound displayed an inhibitory constant (Ki) of 0.18 µM. Also, the 50% inhibitory concentration (IC50) is 0.2 ± 0.023 µM against hUGT1A1 [1], 0.1 to 0.29 µM on hUGT1A1 [4] and 0.41 ± 0.048 µM at hUGT1A1 [2] (setting [5]).

`COc1cc(O)c2c(=O)cc(-c3ccc(O)cc3)oc2c1` [Genkwanin]: the IC50 at hUGT1A1 [2] (setting [5]) is 1.5 ± 0.46 µM.

Take `COc1cc(O)c2c(=O)cc(-c3ccc(OC)c(-c4c(O)cc(O)c5c(=O)cc(-c6ccc(O)cc6)oc45)c3)oc2c1` [Ginkgetin]: the Inhibition mode entry at hUGT1A1 [3] was “Mixed”. The compound further registered a Ki on hUGT1A1 [3] of 0.07 µM. For the same compound, the results for the IC50 against hUGT1A1 [1], on hUGT1A1 [4] and on hUGT1A1 [2] (setting [5]) were 0.15 ± 0.014 µM, 0.1 to 0.29 µM and 0.075 ± 0.009 µM, respectively.

Turning to `C[C@@H]1C(=O)O[C@H]2C[C@@]34[C@H]5C[C@@H](C(C)(C)C)[C@]36[C@@H](OC(=O)[C@@H]6O)O[C@@]4(C(=O)O5)[C@]21O` [Ginkgolide A], the IC50 on hUGT1A1 [2] (setting [5]) was over 100 µM. On hUGT1A1 [2], the “inhibition of intracellular hUGT1A1” value is “did not inhibit”.

Turning to `COc1ccc(-c2cc(=O)c3c(O)cc(O)c(-c4cc(-c5cc(=O)c6c(O)cc(O)cc6o5)ccc4OC)c3o2)cc1` [Isoginkgetin], the Inhibition mode result at hUGT1A1 [3] is recorded as “Mixed”. The compound further gave a Ki on hUGT1A1 [3] of 0.74 µM. The IC50 against hUGT1A1 [1] is 0.67 ± 0.085 µM; at hUGT1A1 [4] it was 0.1 to 0.29 µM; on hUGT1A1 [2] (setting [5]) it was 0.16 ± 0.02 µM.

With `O=c1c(O)c(-c2ccc(O)cc2)oc2cc(O)cc(O)c12` [Kaempferol], on hUGT1A1 [2] (setting [5]), the IC50 worked out at 1.38 ± 0.19 µM.

With `COc1cc(-c2oc3cc(O)cc(O)c3c(=O)c2O)ccc1O` [Lsorhamnetin, isorhamnetin], the IC50 on hUGT1A1 [2] (setting [5]) was 1.68 ± 0.34 µM.

Consider `O=c1cc(-c2ccc(O)c(O)c2)oc2cc(O)cc(O)c12` [Luteolin], for which the IC50 on hUGT1A1 [2] (setting [5]) stood at 1.41 ± 0.17 µM.

As for `O=c1c(O)c(-c2cc(O)c(O)c(O)c2)oc2cc(O)cc(O)c12` [Myricetin], the IC50 at hUGT1A1 [2] (setting [5]) amounted to 64.6 ± 12.2 µM.

As for `O=c1c(O)c(-c2ccc(O)c(O)c2)oc2cc(O)cc(O)c12` [Quercetin], the IC50 on hUGT1A1 [2] (setting [5]) stood at 2.05 ± 0.24 µM.

As for `COc1ccc(-c2cc(=O)c3c(O)cc(O)c(-c4cc(-c5cc(=O)c6c(O)cc(OC)cc6o5)ccc4OC)c3o2)cc1` [Sciadopitysin], on hUGT1A1 [3], the Inhibition mode entry is recorded as “Mixed” and the Ki is 0.67 µM. The compound also showed an IC50 at hUGT1A1 [1] of 0.28 ± 0.036 µM. Moreover, the 50% inhibitory concentration (IC50) on hUGT1A1 [2] (setting [5]) stood at 0.11 ± 0.009 µM.

For the compound Ginkgolide B, the “inhibition of intracellular hUGT1A1” value at hUGT1A1 [2] is reported as “did not inhibit”.

With Ginkgolide C, on hUGT1A1 [2], the “inhibition of intracellular hUGT1A1” value is recorded as “did not inhibit”.
